Test results taken from patent US6902881B2, “Compounds and methods for regulating cell differentiation” (priority 2000, dated 2005).

Assays:
[1] = tested on: Colon Adenocarcinoma (HT 29) cells; test: Cellular triacyl glycerol (TAG) content, colon adenocarcinoma; assay type: cell-based, human; conditions: biliverdin 4 × 10^−7 M
Protocol: Expression of differentiation markers. Carcinoembryogenic antigen in cell supernatants collected each three days was assayed by standard ELISA determinations using an IMX assay for quantitative measurement of the antigen. Cellular triacyl glycerol content was measured spectrophotometrically by enzymatic hydrolysis and analysis of the amount of glycerol released using a standard assay, Triglyceride (INT) 10 (Sigma Diagnostics). Cellular alkaline phosphatase activity was determined by measuring the fluorescence change induced by the hydrolysis of 4-methylumbelliferylphosphate. The fluorescence is detected at 450 nm with an excitation of 365 nm, using a Jobin Ivon-Spex Fluoro Max-2 fluorimeter. The alkaline phosphatase activity detected was expressed in units of μmol/mg protein/min.

[2] = biological target: T1, aryl hydrocarbon receptor (AhR) (Homo sapiens, UniProt P35869); conditions: μM range / concentrations used here (Phelan 1998); cited from earlier work
T1 sequence (P35869 11-848): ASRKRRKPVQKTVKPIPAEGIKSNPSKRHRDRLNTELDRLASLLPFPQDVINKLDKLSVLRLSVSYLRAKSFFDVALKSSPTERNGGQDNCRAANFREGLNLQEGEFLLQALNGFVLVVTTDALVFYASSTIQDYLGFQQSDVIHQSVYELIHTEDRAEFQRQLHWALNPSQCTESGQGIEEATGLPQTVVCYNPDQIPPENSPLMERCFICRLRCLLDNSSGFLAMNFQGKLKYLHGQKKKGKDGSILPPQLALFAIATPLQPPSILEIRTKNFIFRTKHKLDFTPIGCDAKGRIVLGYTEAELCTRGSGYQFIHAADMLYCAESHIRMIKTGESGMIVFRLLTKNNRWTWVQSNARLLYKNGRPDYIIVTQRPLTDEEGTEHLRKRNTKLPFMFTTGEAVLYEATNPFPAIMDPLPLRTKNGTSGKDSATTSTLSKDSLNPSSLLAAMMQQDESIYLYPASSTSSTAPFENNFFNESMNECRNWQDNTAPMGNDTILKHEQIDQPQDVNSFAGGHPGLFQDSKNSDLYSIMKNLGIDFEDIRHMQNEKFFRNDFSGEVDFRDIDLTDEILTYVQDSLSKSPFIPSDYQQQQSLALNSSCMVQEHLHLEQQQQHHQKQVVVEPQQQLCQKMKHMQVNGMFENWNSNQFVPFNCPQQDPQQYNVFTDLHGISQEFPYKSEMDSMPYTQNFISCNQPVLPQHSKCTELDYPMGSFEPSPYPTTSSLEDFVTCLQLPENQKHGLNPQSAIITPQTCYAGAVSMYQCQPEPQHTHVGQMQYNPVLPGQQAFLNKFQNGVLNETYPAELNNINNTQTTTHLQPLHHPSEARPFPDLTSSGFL

SMILES: C=CC1=C(C)/C(=C/C2=NC(=C\c3[nH]c(/C=C4\NC(=O)C(C)=C4C=C)c(C)c3CCC(=O)O)/C(CCC(=O)O)=C2C)NC1=O [Biliverdin, biliverdin IXα]
- % Change of TAG [1]: 154%
- TAG ([1]; control 68): 105 µg/10^6 cells
- activation of the aryl hydrocarbon receptor [2]: binds and is activated
